Like-named read-outs stand apart in the source and are kept apart here.
How the values were obtained:
[1] = system: E. coli PDC-382 (E. coli TOP10 recombinant strain); assay: microbe, parasite or virus in culture; type: cell-based; conditions: Escherichia coli, read-out: MICs
Description: (§1) In order to assess the relative inhibitory activities of those BLI against AmpC β-lactamases, the corresponding blaampC genes without the original promoter sequences were amplified by PCR with specific primers, and corresponding amplicons were cloned into plasmid pUCp24, as described previously ([12], [13]). […] Cultures of E. coli TOP10 harboring recombinant plasmids and therefore producing the different AmpC tested were grown overnight at 37°C in Luria-Bertani agar medium containing amoxicillin (AMX) (50 µg/mL). The activity of the following acquired class C β-lactamases could therefore be evaluated, namely, ACC-1 (originally from Hafnia spp.), FOX-5 (from Aeromonas allosaccharophila), CMY-2 and CMY-42 (from Citrobacter spp.), DHA-1 (from Morganella morganii), ACT-7 and ACT-17 (from Enterobacter asburiae), MIR-17 (from Enterobacter roggenkampii), MOX-2 (from Aeromonas caviae), and LAT-1 (from Citrobacter portucalensis) ([5]). […] Altogether, these enzymes were chosen as representatives of clinically relevant class C β-lactamases being sources of intrinsic or acquired resistance to broad-spectrum β-lactams among most of the commonly identified Gram-negative bacteria in clinical practice.
(§2) MICs were determined in triplicate by broth microdilution (BMD) for CAZ and AMX, as well as their combinations with each β-lactamase inhibitor. CAZ, AMX, and CLA were purchased from Sigma-Aldrich (St. Louis, MO, USA). All others inhibitors (TAZ HY-W009168, AVI HY-14879, REL HY-16752, VAB HY-19930, NAC HY-109008, ZID HY-120859, TAN HY-109124, XER HY-136072, DUR HY-117974, EMT HY-103095) were purchased from MedChem Express (Luzern, Switzerland). The concentration of each β-lactamase inhibitor was chosen as the concentration used in the respective BL/BLI combination under development or commercially available, according to EUCAST or CLSI ([18], [19]). […] BMD assays were performed in cation-adjusted Mueller-Hinton (MH) broth (Bio-Rad, Marnes-la-Coquette, France) for all antibiotics or antibiotic combinations listed above, according to the EUCAST guidelines ([20]).

[2] = system: E. coli CMY-2 (E. coli TOP10 recombinant strain); assay: microbe, parasite or virus in culture; type: cell-based; conditions: Escherichia coli, read-out: MICs
Description: as §1, §2

[3] = system: E. coli LAT-1 (E. coli TOP10 recombinant strain); assay: microbe, parasite or virus in culture; type: cell-based; conditions: Escherichia coli, read-out: MICs
Description: as §1, §2

[4] = system: E. coli FOX-5 (E. coli TOP10 recombinant strain); assay: microbe, parasite or virus in culture; type: cell-based; conditions: Escherichia coli, read-out: MICs
Description: as §1, §2

[5] = system: E. coli MOX-2 (E. coli TOP10 recombinant strain); assay: microbe, parasite or virus in culture; type: cell-based; conditions: Escherichia coli, read-out: MICs
Description: as §1, §2

[6] = system: E. coli PDC-5 (E. coli TOP10 recombinant strain); assay: microbe, parasite or virus in culture; type: cell-based; conditions: Escherichia coli, read-out: MICs
Description: as §1, §2

[7] = system: E. coli YRC-1 (E. coli TOP10 recombinant strain); assay: microbe, parasite or virus in culture; type: cell-based; conditions: Escherichia coli, read-out: MICs
Description: as §1, §2

E. coli TOP10 [8] = assay: microbe, parasite or virus in culture; type: cell-based; conditions: Escherichia coli
Description: as §1, §2

[9] = system: E. coli ACT-17 (E. coli TOP10 recombinant strain); assay: microbe, parasite or virus in culture; type: cell-based; conditions: Escherichia coli, read-out: MICs
Description: as §1, §2

[10] = system: E. coli PDC-1 (E. coli TOP10 recombinant strain); assay: microbe, parasite or virus in culture; type: cell-based; conditions: Escherichia coli, read-out: MICs
Description: as §1, §2

[11] = system: E. coli SRT-2 (E. coli TOP10 recombinant strain); assay: microbe, parasite or virus in culture; type: cell-based; conditions: Escherichia coli, read-out: MICs
Description: as §1, §2

[12] = system: E. coli DHA-1 (E. coli TOP10 recombinant strain); assay: microbe, parasite or virus in culture; type: cell-based; conditions: Escherichia coli, read-out: MICs
Description: as §1, §2

[13] = system: E. coli ACC-1 (E. coli TOP10 recombinant strain); assay: microbe, parasite or virus in culture; type: cell-based; conditions: Escherichia coli, read-out: MICs
Description: as §1, §2

[14] = system: E. coli ACT-7 (E. coli TOP10 recombinant strain); assay: microbe, parasite or virus in culture; type: cell-based; conditions: Escherichia coli, read-out: MICs
Description: as §1, §2

[15] = system: E. coli MIR-17 (E. coli TOP10 recombinant strain); assay: microbe, parasite or virus in culture; type: cell-based; conditions: Escherichia coli, read-out: MICs
Description: as §1, §2

[16] = system: E. coli CMY-42 (E. coli TOP10 recombinant strain); assay: microbe, parasite or virus in culture; type: cell-based; conditions: Escherichia coli, read-out: MICs
Description: as §1, §2

[17] = system: E. coli Ear-1 (E. coli TOP10 recombinant strain); assay: microbe, parasite or virus in culture; type: cell-based; conditions: Escherichia coli, read-out: MICs
Description: as §1, §2

[18] = system: E. coli ADC-50 (E. coli TOP10 recombinant strain); assay: microbe, parasite or virus in culture; type: cell-based, Escherichia coli; conditions: Escherichia coli, read-out: MICs
Description: as §1, §2

E. coli ATCC 25922 = assay: MIC by broth microdilution, E. coli ATCC 25922; type: cell-based; conditions: Escherichia coli
Description: as §2

[19] = system: Pseudomonas aeruginosa ATCC 27853 (inducible AmpC); assay: microbe, parasite or virus in culture; type: cell-based; conditions: ATCC27853, QC strain P. aeruginosa ATCC 27853, broth microdilution, Table S1, read-out: Minimal Inhibitory Concentrations
Description: as §2
(§3) Table S1. Susc eptibility testing of al l QC strains used in the study.
(§4) Mi n ima l In hibitory Concentrations (µg / ml) a […]

[20] = system: Klebsiella pneumoniae ATCC 700603 (SHV-18, OXA-2); assay: microbe, parasite or virus in culture; type: cell-based; conditions: ATCC700603, read-out: Minimal Inhibitory Concentrations
Description: as §2, §3, §4

[21] = system: Escherichia coli NCTC 13353 (CTX-M-15, OXA-1); assay: QC susceptibility testing (MIC), E. coli NCTC 13353; type: cell-based; conditions: NCTC13353, read-out: Minimal Inhibitory Concentrations
Description: as §2, §3, §4

YRC-1 = YRC-1 (Yersinia ruckeri, UniProt Q20I87); assay: IC50 of β-lactamase inhibitors, crude extract, YRC-1; type: biochemical
Sequence of YRC-1 (Q20I87 entry or part of it): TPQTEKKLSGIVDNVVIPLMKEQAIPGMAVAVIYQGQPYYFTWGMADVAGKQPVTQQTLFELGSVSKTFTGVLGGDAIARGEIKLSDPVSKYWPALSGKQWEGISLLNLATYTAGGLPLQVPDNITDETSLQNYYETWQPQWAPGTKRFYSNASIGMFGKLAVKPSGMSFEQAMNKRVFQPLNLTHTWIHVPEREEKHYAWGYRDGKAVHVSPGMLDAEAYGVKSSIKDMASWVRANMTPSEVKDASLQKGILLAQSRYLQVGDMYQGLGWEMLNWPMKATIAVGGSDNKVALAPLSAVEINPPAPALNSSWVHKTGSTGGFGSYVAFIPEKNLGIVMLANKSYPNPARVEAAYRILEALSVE

ADC-50 = ADC-50 (Acinetobacter baumannii, UniProt Q6DRA1); assay: IC50 of β-lactamase inhibitors, crude extract, ADC-50; type: biochemical, A. baumannii; conditions: ADC-50, crude extract of E. coli TOP10 recombinant strain, mean of triplicate
PDC-382 = PDC-382 (Pseudomonas aeruginosa, UniProt P24735, T96I); assay: biochemical; design: species or system P. aeruginosa
Sequence of PDC-382 (P24735 27-397 T96I): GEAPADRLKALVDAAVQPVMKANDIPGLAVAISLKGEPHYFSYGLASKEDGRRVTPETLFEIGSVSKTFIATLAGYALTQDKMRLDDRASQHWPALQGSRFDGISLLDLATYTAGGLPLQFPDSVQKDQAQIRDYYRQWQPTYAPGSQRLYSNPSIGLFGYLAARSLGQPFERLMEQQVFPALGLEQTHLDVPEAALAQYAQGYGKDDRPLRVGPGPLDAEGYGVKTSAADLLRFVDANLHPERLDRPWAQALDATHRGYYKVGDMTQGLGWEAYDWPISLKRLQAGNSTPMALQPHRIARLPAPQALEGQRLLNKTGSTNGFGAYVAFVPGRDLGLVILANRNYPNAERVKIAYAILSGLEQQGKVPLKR

MIR-17 = assay: IC50 of β-lactamase inhibitors, crude extract, MIR-17; type: biochemical, Enterobacter roggenkampii; conditions: crude extract of E. coli TOP10 recombinant strain, mean of triplicate
Ear-1 = Ear-1 (Klebsiella aerogenes, UniProt A0A0H3FRQ3); assay: IC50 of β-lactamase inhibitors, crude extract, Ear-1; type: biochemical
Sequence of Ear-1 (A0A0H3FRQ3 entry or part of it): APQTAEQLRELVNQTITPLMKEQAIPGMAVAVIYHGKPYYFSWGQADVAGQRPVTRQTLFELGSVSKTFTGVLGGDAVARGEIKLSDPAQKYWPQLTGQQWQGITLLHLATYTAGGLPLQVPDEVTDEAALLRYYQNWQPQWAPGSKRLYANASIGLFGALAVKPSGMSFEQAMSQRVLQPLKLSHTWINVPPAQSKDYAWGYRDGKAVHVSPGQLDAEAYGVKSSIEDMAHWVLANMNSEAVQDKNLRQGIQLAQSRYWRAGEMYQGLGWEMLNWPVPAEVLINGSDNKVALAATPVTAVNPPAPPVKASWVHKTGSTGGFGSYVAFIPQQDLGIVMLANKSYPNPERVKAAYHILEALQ

CMY-2 = molecular target: T1, CMY-2 (Klebsiella pneumoniae, UniProt Q48434); assay: biochemical; design: species or system Citrobacter spp.
T1 construct: made in house; host or cells: E. coli TOP10, plasmid pUCp24
T1 sequence (Q48434 21-381): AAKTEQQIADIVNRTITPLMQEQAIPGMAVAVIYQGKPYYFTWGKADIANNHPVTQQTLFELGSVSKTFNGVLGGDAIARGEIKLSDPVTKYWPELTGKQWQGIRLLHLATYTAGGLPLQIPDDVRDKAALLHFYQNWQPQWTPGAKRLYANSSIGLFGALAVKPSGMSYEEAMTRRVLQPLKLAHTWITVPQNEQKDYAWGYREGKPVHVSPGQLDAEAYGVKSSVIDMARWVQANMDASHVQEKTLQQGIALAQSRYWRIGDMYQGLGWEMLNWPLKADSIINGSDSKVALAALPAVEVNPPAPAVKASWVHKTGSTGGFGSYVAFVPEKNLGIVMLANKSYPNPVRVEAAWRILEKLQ

CMY-42 = molecular target: T2, CMY-42 (Klebsiella pneumoniae, UniProt Q48434, V231S); assay: biochemical; design: species or system Citrobacter spp.
T2 construct: made in house; host or cells: E. coli TOP10, plasmid pUCp24
T2 sequence (Q48434 21-381 V231S): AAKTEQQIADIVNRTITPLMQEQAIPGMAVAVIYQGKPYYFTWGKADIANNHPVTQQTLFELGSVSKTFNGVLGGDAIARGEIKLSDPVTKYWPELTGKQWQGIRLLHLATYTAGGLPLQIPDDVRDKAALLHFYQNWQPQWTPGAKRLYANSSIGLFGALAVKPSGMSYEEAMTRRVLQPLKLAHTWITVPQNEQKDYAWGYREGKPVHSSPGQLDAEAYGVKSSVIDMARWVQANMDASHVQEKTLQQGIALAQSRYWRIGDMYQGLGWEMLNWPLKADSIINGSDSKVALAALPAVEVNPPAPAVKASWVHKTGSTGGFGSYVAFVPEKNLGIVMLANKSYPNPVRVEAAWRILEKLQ

PDC-5 = molecular target: T3, PDC-5 (Pseudomonas aeruginosa, UniProt P24735, R79Q/T105A); assay: biochemical; design: species or system P. aeruginosa
T3 construct: made in house; host or cells: E. coli TOP10, plasmid pUCp24
T3 sequence (P24735 27-397 R79Q/T105A): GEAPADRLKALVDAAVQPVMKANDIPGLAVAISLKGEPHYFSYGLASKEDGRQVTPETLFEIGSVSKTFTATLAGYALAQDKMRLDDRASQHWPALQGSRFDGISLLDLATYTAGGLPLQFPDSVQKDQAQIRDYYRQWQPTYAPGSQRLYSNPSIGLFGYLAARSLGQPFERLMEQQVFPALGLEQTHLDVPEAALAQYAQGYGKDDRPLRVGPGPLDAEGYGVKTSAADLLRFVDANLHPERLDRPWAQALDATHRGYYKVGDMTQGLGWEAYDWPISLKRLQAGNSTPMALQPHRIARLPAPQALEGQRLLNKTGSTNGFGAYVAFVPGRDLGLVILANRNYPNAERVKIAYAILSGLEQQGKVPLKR

ACT-7 = ACT-7 (Enterobacter asburiae, UniProt B6V6L3); assay: biochemical
Sequence of ACT-7 (B6V6L3 entry or part of it): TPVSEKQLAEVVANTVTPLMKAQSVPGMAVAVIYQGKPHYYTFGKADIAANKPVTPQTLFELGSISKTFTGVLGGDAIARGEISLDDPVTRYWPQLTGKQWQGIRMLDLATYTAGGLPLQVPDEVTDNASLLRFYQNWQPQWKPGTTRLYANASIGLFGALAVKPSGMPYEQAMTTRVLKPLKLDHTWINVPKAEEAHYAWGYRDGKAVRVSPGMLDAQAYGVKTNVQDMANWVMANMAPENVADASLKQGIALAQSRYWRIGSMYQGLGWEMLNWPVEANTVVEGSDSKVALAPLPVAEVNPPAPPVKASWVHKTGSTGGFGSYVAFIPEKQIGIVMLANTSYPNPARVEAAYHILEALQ

E. coli TOP10 [22] = system: E. coli TOP10; design: method as in PMID 38727224; conditions: inhibitor alone, previous study; cited from earlier work
MOX-2 = MOX-2 (Aeromonas caviae, UniProt Q9L3G2); assay: IC50 of β-lactamase inhibitors, crude extract, MOX-2; type: biochemical
Sequence of MOX-2 (Q9L3G2 entry or part of it): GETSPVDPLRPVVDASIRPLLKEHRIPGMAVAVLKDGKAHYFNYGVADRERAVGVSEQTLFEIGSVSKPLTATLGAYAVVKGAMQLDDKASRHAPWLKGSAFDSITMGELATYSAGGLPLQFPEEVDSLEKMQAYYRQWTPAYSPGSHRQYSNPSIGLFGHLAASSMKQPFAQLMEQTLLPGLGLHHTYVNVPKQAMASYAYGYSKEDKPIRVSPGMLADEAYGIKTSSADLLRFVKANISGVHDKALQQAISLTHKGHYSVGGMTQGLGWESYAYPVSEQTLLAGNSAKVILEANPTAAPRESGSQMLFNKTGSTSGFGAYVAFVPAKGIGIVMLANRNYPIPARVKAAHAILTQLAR

LAT-1 = LAT-1 (Citrobacter portucalensis, UniProt Q48443); assay: biochemical
Sequence of LAT-1 (Q48443 entry or part of it): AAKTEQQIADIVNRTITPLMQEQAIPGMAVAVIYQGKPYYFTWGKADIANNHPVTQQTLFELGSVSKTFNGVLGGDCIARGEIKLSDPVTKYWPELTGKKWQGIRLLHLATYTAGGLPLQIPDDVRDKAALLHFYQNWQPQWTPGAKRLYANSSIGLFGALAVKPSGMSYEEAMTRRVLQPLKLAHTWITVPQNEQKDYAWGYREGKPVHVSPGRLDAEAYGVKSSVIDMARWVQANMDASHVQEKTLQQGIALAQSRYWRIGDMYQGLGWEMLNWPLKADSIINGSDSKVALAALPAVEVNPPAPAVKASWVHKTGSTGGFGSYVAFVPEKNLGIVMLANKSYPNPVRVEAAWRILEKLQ

FOX-5 = FOX-5 (Aeromonas allosaccharophila, UniProt Q9F4K3); assay: IC50 of β-lactamase inhibitors, crude extract, FOX-5; type: biochemical
Sequence of FOX-5 (Q9F4K3 entry or part of it): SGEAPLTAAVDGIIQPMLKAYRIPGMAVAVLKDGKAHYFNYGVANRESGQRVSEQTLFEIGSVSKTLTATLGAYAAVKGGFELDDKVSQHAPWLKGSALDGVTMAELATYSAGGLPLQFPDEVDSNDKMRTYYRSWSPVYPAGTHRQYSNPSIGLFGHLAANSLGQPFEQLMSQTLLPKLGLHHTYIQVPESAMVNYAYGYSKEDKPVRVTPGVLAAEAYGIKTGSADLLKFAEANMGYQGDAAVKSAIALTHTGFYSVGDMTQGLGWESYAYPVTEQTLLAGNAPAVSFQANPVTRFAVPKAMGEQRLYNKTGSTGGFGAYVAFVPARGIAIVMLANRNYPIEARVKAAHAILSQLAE

ACC-1 = ACC-1 (Hafnia alvei, UniProt Q9XB24); assay: IC50 of β-lactamase inhibitors, crude extract, ACC-1; type: biochemical
ACT-17 = ACT-17 (Enterobacter asburiae, UniProt P05364); type: biochemical; conditions: crude extract of E. coli TOP10 recombinant strain, mean of triplicate
Sequence of ACT-17 (P05364 21-381): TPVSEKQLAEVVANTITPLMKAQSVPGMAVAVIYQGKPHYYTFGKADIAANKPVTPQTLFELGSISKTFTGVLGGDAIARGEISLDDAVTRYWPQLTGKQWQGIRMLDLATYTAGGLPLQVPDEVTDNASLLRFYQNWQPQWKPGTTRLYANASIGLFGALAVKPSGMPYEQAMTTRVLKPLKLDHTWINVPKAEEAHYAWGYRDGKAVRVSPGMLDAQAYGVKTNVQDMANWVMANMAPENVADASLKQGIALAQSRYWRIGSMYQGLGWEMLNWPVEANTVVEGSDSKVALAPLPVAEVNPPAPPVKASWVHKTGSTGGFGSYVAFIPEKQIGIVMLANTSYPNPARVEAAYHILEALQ

PDC-1 = molecular target: T4, PDC-1 (Pseudomonas aeruginosa, UniProt P24735); assay: biochemical; design: species or system P. aeruginosa
T4 construct: made in house; host or cells: E. coli TOP10, plasmid pUCp24
T4 sequence (P24735 27-397): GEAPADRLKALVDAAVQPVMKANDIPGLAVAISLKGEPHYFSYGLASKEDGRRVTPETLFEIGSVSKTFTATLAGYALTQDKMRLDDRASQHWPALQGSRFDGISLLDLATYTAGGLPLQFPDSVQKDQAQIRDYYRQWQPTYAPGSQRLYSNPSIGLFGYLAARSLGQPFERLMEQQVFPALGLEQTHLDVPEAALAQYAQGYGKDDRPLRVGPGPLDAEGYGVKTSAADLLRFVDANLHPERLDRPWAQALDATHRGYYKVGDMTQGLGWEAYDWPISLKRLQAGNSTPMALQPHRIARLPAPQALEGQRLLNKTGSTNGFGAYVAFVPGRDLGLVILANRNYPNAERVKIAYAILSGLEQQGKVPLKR

DHA-1 = DHA-1 (Morganella morganii, UniProt P94958); assay: IC50 of β-lactamase inhibitors, crude extract, DHA-1; type: biochemical
SRT-1 = SRT-1 (Serratia marcescens, UniProt P18539); assay: IC50 of β-lactamase inhibitors, crude extract, SRT-1; type: biochemical; conditions: crude extract of E. coli TOP10 recombinant strain, mean of triplicate
Sequence of SRT-1 (P18539 22-376): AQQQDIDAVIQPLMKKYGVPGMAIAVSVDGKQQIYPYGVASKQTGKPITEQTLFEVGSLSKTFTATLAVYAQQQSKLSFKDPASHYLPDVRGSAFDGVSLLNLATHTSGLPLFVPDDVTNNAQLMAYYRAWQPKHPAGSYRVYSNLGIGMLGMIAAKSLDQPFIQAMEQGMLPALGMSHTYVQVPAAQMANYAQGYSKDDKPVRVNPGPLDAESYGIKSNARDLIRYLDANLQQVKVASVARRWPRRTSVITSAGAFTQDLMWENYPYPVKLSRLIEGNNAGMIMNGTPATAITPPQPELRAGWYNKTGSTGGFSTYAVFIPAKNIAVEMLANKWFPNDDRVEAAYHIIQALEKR

[23] = ATCC25922, E. coli ATCC 25922, β-lactam alone or with inhibitor at fixed conc.: CLA 2 µg/mL, TZB, AVI, REL, NAC, ZID, DUR, TAN 4 µg/mL, VAB, XER, EMT 8 µg/mL, read-out: MICs

SMILES	MIC [1] [µg/mL]	MIC [2] [µg/mL]	MIC [3] [µg/mL]	MIC [4] [µg/mL]	MIC [5] [µg/mL]	MIC [6] [µg/mL]	MIC [7] [µg/mL]	MIC [9] [µg/mL]	MIC [10] [µg/mL]	MIC [11] [µg/mL]	MIC [12] [µg/mL]	MIC [13] [µg/mL]	MIC [14] [µg/mL]	MIC [15] [µg/mL]	MIC [16] [µg/mL]	MIC [17] [µg/mL]	MIC [18] [µg/mL]	MIC (E. coli ATCC 25922; [23]) [µg/mL]	further results
CC1(C)S[C@@H]2[C@H](NC(=O)[C@H](N)c3ccc(O)cc3)C(=O)N2[C@H]1C(=O)O [Amoxicillin, amoxicillin]	16	> 1020	512	8	8	16	512	512	16	128	1020	32	1020	128	1020	> 1020	512	4	MIC (E. coli TOP10 [8]; TOP10, read-out: MICs): 1 µg/mL
CC(C)(O/N=C(\C(=O)N[C@@H]1C(=O)N2C(C(=O)[O-])=C(C[n+]3ccccc3)CS[C@H]12)c1csc(N)n1)C(=O)O [Ceftazidime, ceftazidime]	2	> 256	64	8	0.5	1	8	32	0.5	4	128	32	64	4	> 256	> 256	64	0.06	MIC (E. coli TOP10 [8]; E. coli TOP10, broth microdilution, β-lactam alone or with inhibitor at fixed conc.: CLA 2 µg/mL, TZB, AVI, REL, NAC, ZID, DUR, TAN 4 µg/mL, VAB, XER, EMT 8 µg/mL, read-out: MICs): 0.25 µg/mL; MIC (E. coli ATCC 25922; ATCC25922, QC strain E. coli ATCC 25922, Table S1, read-out: Minimal Inhibitory Concentrations): 0.06 µg/mL; MIC [19]: 2 µg/mL; MIC [20]: 64 µg/mL; MIC [21]: 256 µg/mL
O=C(O)c1c(F)ccc2c1OB(O)[C@@H]1C[C@H]21 [Xeruborbactam, xeruborbactam]	–	–	–	–	–	–	–	–	–	–	–	–	–	–	–	–	–	–	IC50 (YRC-1): 960 nM; IC50 (ADC-50): 5400 nM; IC50 (ADC-50; listed as XER): 5000 nM; IC50 (PDC-382): 320 nM; IC50 (MIR-17): 310 nM; IC50 (Ear-1): 220 nM; IC50 (CMY-2): 280 nM; IC50 (CMY-42): 430 nM; IC50 (PDC-5): 660 nM; IC50 (ACT-7): 290 nM; MIC value of XER alone (E. coli TOP10 [22]): above 16 µg/mL; IC50 (MOX-2): 260 nM; IC50 (LAT-1): 340 nM; IC50 (FOX-5): 230 nM; IC50 (ACC-1): 90 nM; IC50 (ACT-17): 200 nM; IC50 (PDC-1): 670 nM; IC50 (DHA-1): 160 nM; IC50 (SRT-1): 220 nM
